What was measured:
plaque = assay: double-blind, placebo controlled clinical trial in 20 adult dogs, whole mouth plaque scores (Example 1); assay type: in vivo; conditions: 28 days
Description: First, a double-blind, placebo controlled clinical trial was conducted using 20 adult dogs of mixed breed and weights. The dogs were randomly divided into two groups. […] Group 1 dogs were further divided into two groups of five dogs. Five received molecular iodine [I2] dissolved into 1000 mL water to a final concentration of 0.5 microgram/mL. The second group of five dogs received molecular iodine [I2] dissolved into 1000 mL water to a final concentration of 1.0 microgram/mL. The placebo group of 10 dogs received no iodine. […]
Each dog was weighed, blood drawn for determination of thyroid level and a qualitative assessment was made for halitosis using a 0, 1, 2, 3, 4 and 5 scale with 0 indicating no discernible “doggie breath produced by hydrogen sulfide H2S” and 5 being very noxious, strong odor. […] At the end of the study i.e., 28 days each dog was sedated, breath was evaluated and teeth were stained with disclosing solution that is proven to stain plaque red. The attending veterinarian who measured the initial marginal tooth-gum line measured all the proscribed teeth using the published technique (Scherl D S, Coffman L, et al. Validation of a New Dental Plaque Quantification Method in Dogs. J Vet Dent 24(1); 14-20, 2007). All values from all 20 dogs were recorded and whole mouth scores were calculated.

thyroid level (T4) = thyroid level (T4) in the Example 1 clinical trial; assay type: in vivo, dogs; conditions: 0.5 or 1.0 microgram/mL in drinking water, 28 days
Source text: Each dog was weighed, blood drawn for determination of thyroid level and a qualitative assessment was made for halitosis using a 0, 1, 2, 3, 4 and 5 scale with 0 indicating no discernible “doggie breath produced by hydrogen sulfide H2S” and 5 being very noxious, strong odor. Dogs were anesthetized, marginal tooth-gum line measurements were taken for proscribed teeth (required for veterinary oral health counsel certification of efficacy at reducing plaque in dogs found at www.VOHC.com) and dog teeth were cleaned to remove all plaque and tarter. All dogs were given either drug or placebo each morning for 28 days. Journal entries were kept for each dog to monitor for compliance, observations regarding dog drinking behavior and comments regarding dog breath/odor. Once each dog drank all the water i.e., 1000 mL the water bowl was filled with fresh water. […] At the end of the study i.e., 28 days each dog was sedated, breath was evaluated and teeth were stained with disclosing solution that is proven to stain plaque red. The attending veterinarian who measured the initial marginal tooth-gum line measured all the proscribed teeth using the published technique (Scherl D S, Coffman L, et al. Validation of a New Dental Plaque Quantification Method in Dogs. J Vet Dent 24(1); 14-20, 2007). All values from all 20 dogs were recorded and whole mouth scores were calculated.

[1] = test system: halitosis (volatile sulfur compounds, hydrogen sulfide); assay: halitosis secondary end point: Halimeter VSC readings and qualitative odor 0-5 scale (Example 1); assay type: in vivo, dogs
Source text: Each dog was weighed, blood drawn for determination of thyroid level and a qualitative assessment was made for halitosis using a 0, 1, 2, 3, 4 and 5 scale with 0 indicating no discernible “doggie breath produced by hydrogen sulfide H2S” and 5 being very noxious, strong odor. Dogs were anesthetized, marginal tooth-gum line measurements were taken for proscribed teeth (required for veterinary oral health counsel certification of efficacy at reducing plaque in dogs found at www.VOHC.com) and dog teeth were cleaned to remove all plaque and tarter. All dogs were given either drug or placebo each morning for 28 days. Journal entries were kept for each dog to monitor for compliance, observations regarding dog drinking behavior and comments regarding dog breath/odor. Once each dog drank all the water i.e., 1000 mL the water bowl was filled with fresh water. The following day all the remaining water was discarded and the clinical trial sample was added to the water bowl. At the end of the study i.e., 28 days each dog was sedated, breath was evaluated and teeth were stained with disclosing solution that is proven to stain plaque red. The attending veterinarian who measured the initial marginal tooth-gum line measured all the proscribed teeth using the published technique (Scherl D S, Coffman L, et al. Validation of a New Dental Plaque Quantification Method in Dogs. J Vet Dent 24(1); 14-20, 2007). All values from all 20 dogs were recorded and whole mouth scores were calculated.
The halitosis secondary end point was more complicated since the attempt was made to use an Interscan Corporation Halimeter® that quantitatively measures volatile sulfur compounds (VSC) in the oral cavity. The Halimeter was designed for use by dentists and humans. One of the requirements to obtain reliable readings is for the conscious human subject to blow into a straw connected into the Halimeter. The problem encountered with dogs while under anesthesia is obtaining a valid reading since they are unable to “blow” into the straw. Early dog readings were erratic and turned out to be unreliable. […]

[2] = test system: oral bacteria responsible for plaque formation; assay: kill of oral bacteria responsible for plaque formation; assay type: cell-based; conditions: 2 micrograms/mL
Source text: (§1) The inventor evaluated a variety elemental iodine concentrations e.g., 0.5, 1.0, 2.0, 3, 5, 10, 15 and 20 micrograms/mL and discovered that dogs preferred drinking water with elemental iodine below 2 micrograms/mL. We evaluated the ability of elemental iodine to kill oral bacteria at a concentration of 2 micrograms/mL responsible for plaque formation and discovered that elemental iodine was effective at this dose i.e., microbial kill >3 logs/min. We evaluated lower concentrations of elemental iodine e.g., 0.05, 0.1 and 0.5 micrograms/mL. […] We hypothesized that molecular iodine concentrations below 0.5 micrograms/mL may not be not effective in killing oral bacteria responsible for plaque formation. We confirmed this assumption by performing microbial analysis. The inventor sent samples of two part preparations e.g., 1 vial with water and a second vial with iodine in 100% ethyl alcohol. These were combined before analysis so that the final concentrations were 0.05, 0.1, 0.5, 1.0, 2.0 and 5.0 micrograms/mL. The test organism was a known plaque-producing bacterium i.e., Neisseria spp. A contract research laboratory in Texas i.e., MicroChem Laboratories performed the use dilution experiments.

Neisseria spp. = assay: use dilution experiments (MicroChem Laboratories); assay type: cell-based; conditions: for reduction in microbial concentration / kill: 1 minute time point
Source text: as §1

[3] = test system: plaque formation on teeth; assay: two double-blind, placebo-controlled clinical trials at a humane shelter, plaque prevention; assay type: in vivo, dogs
Description: (§2) Plaque formation leads to gingivitis and periodontal disease and often progresses to systemic disease and death in dogs. Clinical trial 1 was conducted at a humane shelter with all dogs enclosed in kennels using a manually added drug vs. placebo. Subsequently, Clinical Trial 2 was conducted at a humane shelter with all dogs enclosed in kennels but in this case the iodine vs placebo was administered via an automated system.
We conducted two double-blind, placebo-controlled clinical trials using both 0.5 and 1.0 micrograms elemental iodine in water.

thyroid hormone levels = thyroid hormone levels in the two shelter clinical trials; assay type: in vivo, dogs; conditions: iodine added to dog drinking water
Description: as §2
Furthermore, neither dog weight or age affected the plaque prevention effect. Finally, the iodine added to dog drinking water had no effect on dog thyroid hormone levels.

[4] = saturation of absolute alcohol with molecular iodine; assay type: physicochemical
Source text: One embodiment of the present invention features a carrier liquid ethanol. The ethanol is preferably devoid of water, as in absolute alcohol. As used herein, the term “absolute alcohol” refers to alcohol with no or limited water content as such term is used in a commercial context. One formulation molecular iodine having a concentration in absolute alcohol in the range of 0.1 to 1.0 Gm molecular iodine in 13 milliliters of absolute alcohol. Molecular iodine saturates absolute alcohol at a concentration of 1 Gm per 13 milliliters of absolute alcohol. A further embodiment of the present formulation features a molecular sieve particle of between 2 and 4 A which captures and adsorbs water.

Compound: II [molecular iodine]
- whole mouth plaque scores from Day 0 to Day 28, Treated dogs compared to Placebo dogs (plaque; 0.5 or 1.0 microgram/mL in 1000 mL drinking water, once daily): statistically significant reduction
- mean plaque score, dogs receiving 0.5 microgram/mL versus 1.0 micrograms/mL (plaque; drinking water): no difference
- T4 levels after treatment (thyroid level (T4)): remained within normal range
- Halimeter VSC levels at the conclusion of the clinical trial ([1]; 0-5 scale, 3 dogs of the iodine group, initial levels 4-5, not statistically significant): 0-1
- qualitative odor, final ([1]; 0-5 scale, 5 iodine-treated dogs, initial smell 3-5): 0-1
- number of iodine-treated dogs with reduced oral smell or doggie breath or VSC/H2S ([1]; of 10 iodine-treated dogs, 28 days): 8
- microbial kill [2]: > 3 logs/min
- antimicrobial efficacy (Neisseria spp.; 0.05 micrograms/mL): no antimicrobial efficacy
- antimicrobial efficacy (Neisseria spp.; 0.1 micrograms/mL): no antimicrobial efficacy
- reduction in microbial concentration (Neisseria spp.; 0.5 microgram/mL): 100 fold
- reduction in microbial concentration (Neisseria spp.; 1.0 microgram/mL): 1000 fold
- kill (Neisseria spp.; 2.0 microgram/mL): > 4 logs
- kill (Neisseria spp.; 5.0 microgram/mL): > 4 logs
- killing oral bacteria (Neisseria spp.; concentrations below 0.5 micrograms/mL, independent use dilution experiments): not effective
- plaque prevention ([3]; both 0.5 and 1.0 micrograms/mL water): proven effective
- prevention of plaque formation, 0.5 versus 1.0 micrograms/mL ([3]; dog drinking water, all dogs regardless of size or age): statistically significantly identical
- effect on dog thyroid hormone levels (thyroid hormone levels): no effect
- concentration at which molecular iodine saturates absolute alcohol [4]: 1 Gm per 13 milliliters of absolute alcohol

— patent US20180311276A1, “Method and Apparatus for Treating Oral Disease in Animals” (priority 2015, published 2018)
